Values joined by “and” are separate entries in the source; they are usually repeats but may differ in a detail not shown here. Equal entries are not always repeated.
Assays:
Klebsiella pneumoniae = assay: Anti-infectious activity in mice infected with Klebsiella pneumoniae; type: in vivo; conditions: for protective activity against lethal Klebsiella pneumoniae infection in the mouse (in words): summary of observations
[1] = Retention of the muramylpeptide in liposomes suspended in MEM-FCS medium; type: physicochemical; conditions: liposomes in MEM-FCS medium at 37° C.
Description: Liposomes produced under the same conditions, but with muramylpeptides labeled with tritium have enabled the following observations. […] The incorporation of the MDP-GDP and the stability of the latter, has also been verified in reaction tests with anti-MDP monoclonal antibodies. After incubation of these liposomes in the same medium at 37° C. for 72 hours, there is observed a constant agglutination of the liposomes with the antibody (95% of the liposome being agglutinated), this observation bearing witness to the practical absence of any loss of MDP-GDP. […] The leakage, if it was produced, would have been manifested by a decrease in the intensity of agglutination with time.

Candida albicans = assay: Protective action in mice infected with Candida albicans; type: in vivo
bovine serumal-bumin = assay: Adjuvant activity in the Swiss female mouse (passive hemagglutination titer); type: in vivo; conditions: for Primary response 1.21: 100 micrograms with 500 micrograms bovine serum albumin at day 0, serums titrated in pools at day 21; for Secondary response 1.36: booster of 100 micrograms antigen alone at day 30, serums titrated separately at day 36
Description: At day 0, 100 micrograms of C474 were injected with 500 micrograms of bovine serumal-bumin. At day 30, the animals received a booster of 100 micrograms of antigen alone. The following results were obtained:
The titers are expressed in Log 2 of the passive hemagglutination titer. At day 21, the serums were titrated in pools; at day 36, they were titrated separately.

[2] = Pyrogenicity measurements on rabbits (European Pharmacopoea); type: in vivo, rabbit; conditions: 1 mg/kg; groups of three rabbits, one value per animal; listed as 6 -0-GDP-MDPG-OnBu
Text: Certain of the compounds according to the invention show at relatively high doses, a certain pyrogenicity, whose impact is however reduced, taking into account the particularly higher therapeutic index from which they appear to benefit. This being the case, the muramylpeptides in which the group of modification by the two lipophile chains is fixed to the 6 position of the saccharide group, and of which the peptide chain is terminated by a glutamy-alpha-ester-gamma-amide group, are particularly advantageous by reason of their more reduced pyrogenicity. Testimony thereof is borne by comparative pyrogenicity measurements carried out on groups of three rabits with the two compounds more particularly studied, according to the procedure of the European Pharmacopoea, Vol. 2, 1971, pages 58-60. In fact, the following results are obtained, expressed by temperature observations observed in experimental animals to which had previously been administered 1 mg/kg of the compounds studied: for the MDP-GDP : 1°;0.9° and 1° C.; for the 6 -0-GDP-MDPG-OnBu : 0.2°; 0.3° and 0.5° C.

[3] = Table X, 100 μg i.v. at day -1 (dose not given for MDP-L-Ala-GDP), 10^4 K. pneumoniae
[4] = Table XI, 100 μg/day/4 days i.v. (days -4, -3, -2 and -1), 2 × 10^6 Candida albicans

6-O-(beta, gamma-dipalmitoyl-L-glycerol)-capryl-N-acetyl-muramyl-L-alanyl-D-glutamine -n-butyl ester [6-0-GDP-aminocaproyl-MDPG-OnBu]
Protection (%) (Klebsiella pneumoniae; [3]): 56%
Survival (15 d) (Klebsiella pneumoniae; [3]): 9/16
retention of the muramylpeptide in the liposomes (in words) [1]: Quite similar observations

Gentamicin [reference compound]
Protection (%) (Klebsiella pneumoniae; Table IX, Gentamicin 10 μg subcutaneously 2 hours after infection, 5 × 10^4 K. pneumoniae): 21%

C[C@@H]1[C@H](O)[C@@H](C)/C=C/C=C/C=C/C=C/C=C/C=C/C=C/[C@H](O[C@@H]2O[C@H](C)[C@@H](O)[C@H](N)[C@@H]2O)C[C@@H]2O[C@](O)(C[C@@H](O)C[C@@H](O)[C@H](O)CC[C@@H](O)C[C@@H](O)CC(=O)O[C@H]1C)C[C@H](O)[C@H]2C(=O)O [Amphotericin B, reference compound]
Survival (10 d) (Candida albicans; Table XI, Amphotericin B 3 μg subcutaneously on the day of infection, 2 × 10^6 Candida albicans i.v.): 2/16

CCCCCCCCCCCCCCCC(=O)OC[C@@H](COC(=O)CC[C@@H](NC(=O)[C@H](C)NC(=O)[C@@H](C)O[C@H]1[C@H](O)[C@@H](CO)OC(O)[C@@H]1NC(C)=O)C(N)=O)OC(=O)CCCCCCCCCCCCCCC (stereo partly drawn) [MDP-GDP, alpha (N-acetyl-muramyl-L-alanyl-D-isoglutamine), beta, gamma-dipalmitoyl-sn-glycerol]
Protection (%) (Klebsiella pneumoniae; Table IX, 30 μg intravenously 24 hours before infection, 5 × 10^4 K. pneumoniae): 16%
protective activity when injected in liposomes (in words) (Klebsiella pneumoniae; in liposomes, at 0.1 microgram): the most active
protective activity against lethal Klebsiella pneumoniae infection in the mouse (in words) (Klebsiella pneumoniae): protective activity comparable
Primary response 1.21 (bovine serumal-bumin): 3.64 Log 2 of the passive hemagglut
Secondary response 1.36 (bovine serumal-bumin): 10.27 Log 2 of the passive hemagglut
Protection (Candida albicans; Table XI, 100 μg/day/4 days i.v.): 19
Survival (10 d) (Candida albicans; [4]): 2/16
Protection (Candida albicans; Table XII, aqueous suspension 100 μg × 4): 75%
Survival (10 d) (Candida albicans; Table XII, aqueous suspension 100 μg × 4 (days -4, -3, -2, -1), 10^6 Candida albicans): 6/8

alpha (N-acetyl-muramyl-D-alanyl-D-isoglutamine), beta, gamma-dipalmitoyl-sn-glycerol [MDP (D-D) - GDP]
protective activity against lethal Klebsiella pneumoniae infection in the mouse (in words) (Klebsiella pneumoniae): protective activity comparable
retention of the muramylpeptide in the liposomes (in words) [1]: Quite similar observations
Survival (10 d) (Candida albicans; [4]): 0/16

CCCCCCCCCCCCCCCC(=O)OCC(COC(=O)[C@H](C)NC(=O)CC[C@@H](NC(=O)[C@H](C)NC(=O)[C@@H](C)O[C@H]1[C@H](O)[C@@H](CO)OC(O)[C@@H]1NC(C)=O)C(N)=O)OC(=O)CCCCCCCCCCCCCCC (stereo partly drawn) [MDP-L-Ala-GDP, alpha (N-acetyl-muramyl-L-alanyl-D-isoglutaminyl-L-alanine), beta, gamma-dipalmitoyl-sn-glycerol]
Protection (%) (Klebsiella pneumoniae; [3]): 63%
retention of the muramylpeptide in the liposomes (in words) [1]: Quite similar observations

CCCCCCCCCCCCCCCC(=O)OCC(COC(=O)[C@H](C)NC(=O)CC[C@@H](NC(=O)[C@@H](C)NC(=O)[C@@H](C)O[C@H]1[C@H](O)[C@@H](CO)OC(O)[C@@H]1NC(C)=O)C(N)=O)OC(=O)CCCCCCCCCCCCCCC (stereo partly drawn) [MDP(D,D)-L-Ala-GDP, alpha (N-acetyl-muramyl-D-alanyl-D-isoglutaminyl-L-alanine) beta, gamma-dipalmitoyl-sn-glycerol]
Protection (%) (Klebsiella pneumoniae; [3]): 25%
protective activity against lethal Klebsiella pneumoniae infection in the mouse (in words) (Klebsiella pneumoniae): although active, is less so than MDP-L-Ala-GDP
retention of the muramylpeptide in the liposomes (in words) [1]: Quite similar observations

6-O-(beta, gamma-dipalmitoyl-L-glyceryl)-N-acetyl-muramyl-L-alanyl-D-glutamine-n-buty l-ester [6-O-GDP-MDPG-OnBu]
Protection (%) (Klebsiella pneumoniae; Table VII, aqueous suspension, 100 μg i.v. at day -1, 10^4 K. pneumoniae): 68.7%
Survival (15 d) (Klebsiella pneumoniae; Table VII, aqueous suspension, 100 μg i.v. at day -1, mice infected i.v. with 10^4 K. pneumoniae): 22/32
protective activity against lethal Klebsiella pneumoniae infection in the mouse (in words) (Klebsiella pneumoniae): protective activity comparable
Primary response 1.21 (bovine serumal-bumin): 2.64 Log 2 of the passive hemagglut
Secondary response 1.36 (bovine serumal-bumin): 8.6 Log 2 of the passive hemagglut
pyrogenicity, temperature observations in experimental animals [2]: 0.2 °C and 0.3 °C and 0.5 °C
retention of the muramylpeptide in the liposomes (in words) [1]: Quite similar observations

Reference: patent publication USRE35706E, “Lipophila derivatives of muramylpeptides having properties of activating macrophages and compositions containing them” (priority 1984, dated 1997)
